Legend:
muscarinic M2 receptors = molecular target: T1, muscarinic M2 receptors (Rattus norvegicus, UniProt P10980); experiment: Inhibition of binding to muscarinic M2 receptors ([3H]-N-methylscopolamine, heart membrane); details: 0.2 nM [3H]-N-methylscopolamine
T1 construct: a membrane specimen from the heart was used as the membrane specimen; from tissue; host or cells: rat heart membranes (SD rat)
T1 sequence (P10980 1-466): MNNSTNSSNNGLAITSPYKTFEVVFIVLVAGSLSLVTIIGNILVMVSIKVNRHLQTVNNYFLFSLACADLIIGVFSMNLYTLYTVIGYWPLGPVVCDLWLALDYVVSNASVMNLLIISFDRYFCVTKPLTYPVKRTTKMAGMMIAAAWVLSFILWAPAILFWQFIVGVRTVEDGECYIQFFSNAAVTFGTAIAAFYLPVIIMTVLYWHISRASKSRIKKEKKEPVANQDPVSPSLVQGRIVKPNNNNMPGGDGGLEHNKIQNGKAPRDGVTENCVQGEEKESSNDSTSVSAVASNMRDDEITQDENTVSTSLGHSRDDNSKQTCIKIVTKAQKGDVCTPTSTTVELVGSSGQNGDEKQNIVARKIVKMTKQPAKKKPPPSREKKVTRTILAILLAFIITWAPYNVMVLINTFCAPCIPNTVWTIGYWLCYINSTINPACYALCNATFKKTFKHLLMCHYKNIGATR
Description: The compounds of formula [I] in accordance with the present invention have a potent and selective inhibitory effect on binding to muscarinic receptors, as well as a potent and selective antagonistic effect on muscarinic receptors both in vitro and in vivo. […] In these tests, their inhibitory and antagonistic effects were expressed in terms of the dissociation constant (Ki) of each test compound which was calculated from its concentration (IC50 ) causing a 50% inhibition of the binding of a labeled ligand to muscarinic receptors. As the labeled ligand, [^3 H]-telenzepine was used for the muscarinic M1 receptors and [^3 H]-N-methylscopolamine for the muscarinic M2 and M3 receptors.
(§1) A male SD strain rat (purchased from Nippon Charles River Co., Ltd.), weighing about 250-350 g, was sacrificed, and the cerebral cortex, heart and lacrimal glands were excised. Using a Polytron (setting 5), each organ was homogenized in 5 volumes of an ice-cold buffer solution (pH 7.4) containing 50 mM tris-HCl, 5 mM magnesium chloride, 1 mM trisodium ethylenediaminetetraacetate and 20% sucrose. The resulting homogenate was centrifuged at 3,000×g at 4° C. for 15 minutes, and the supernatant was filtered through gauze and ultracentrifuged at 100,000×g at 4° C. for 45 minutes. The resulting precipitate was suspended in an ice-cold buffer solution (pH 7.4) containing 50 mM tris-HCl and 5 mM magnesium chloride (hereinafter referred briefly to as "tris buffer") and ultracentrifuged at 100,000×g at 4° C. for 45 minutes. The resulting precipitate was suspended in tris buffer so as to give a concentration of 50 mg/ml and stored at -80° C. till use. The membrane specimens so prepared were thawed prior to use and submitted to tests for the inhibition of binding to muscarinic receptors.
3) Tests for the inhibition of binding to the muscarinic M2 receptors
(§2) The nonspecific binding of [^3 H]-N-methylscopolamine to receptors was determined by the addition of 1 mM N-methylscopolamine.

muscarinic M3 receptor = muscarinic M3 receptor (Rattus norvegicus, UniProt P08483); experiment: Inhibition of binding to muscarinic M3 receptors ([3H]-N-methylscopolamine, lacrimal gland membrane); set-up: a membrane specimen from the lacrimal glands was used as the membrane specimen; from tissue; host or cells: rat lacrimal gland membranes (SD rat); details: for M1/M3 / M2/M3: ratio of binding Ki; for M1/M3: M1 over M3; for M2/M3: M2 over M3
Description: (§3) In these tests, their inhibitory and antagonistic effects were expressed in terms of the dissociation constant (Ki) of each test compound which was calculated from its concentration (IC50 ) causing a 50% inhibition of the binding of a labeled ligand to muscarinic receptors. As the labeled ligand, [^3 H]-telenzepine was used for the muscarinic M1 receptors and [^3 H]-N-methylscopolamine for the muscarinic M2 and M3 receptors.
as §1
4) Tests for the inhibition of binding to the muscarinic M2 receptors
as §2

muscarinic M1 receptors = molecular target: T2, muscarinic M1 receptors (Rattus norvegicus, UniProt P08482); experiment: Inhibition of binding to muscarinic M1 receptors ([3H]-telenzepine, cerebral cortex membrane)
T2 construct: a mixture of a membrane specimen from the cerebral cortex; from tissue; host or cells: rat cerebral cortex membranes (SD rat)
T2 sequence (P08482 1-460): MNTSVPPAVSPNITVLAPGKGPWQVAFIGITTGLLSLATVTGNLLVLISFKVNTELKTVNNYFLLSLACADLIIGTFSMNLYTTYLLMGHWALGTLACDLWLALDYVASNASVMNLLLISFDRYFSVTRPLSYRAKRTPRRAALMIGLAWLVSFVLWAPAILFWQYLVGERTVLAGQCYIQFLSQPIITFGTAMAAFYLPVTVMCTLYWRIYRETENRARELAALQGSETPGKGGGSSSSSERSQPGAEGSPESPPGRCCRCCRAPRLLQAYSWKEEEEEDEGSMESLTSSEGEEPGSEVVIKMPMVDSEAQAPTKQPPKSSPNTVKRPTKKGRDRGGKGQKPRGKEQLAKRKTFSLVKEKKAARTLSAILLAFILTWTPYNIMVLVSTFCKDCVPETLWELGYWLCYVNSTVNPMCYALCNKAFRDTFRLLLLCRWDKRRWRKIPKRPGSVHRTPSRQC
Description: as §3, §1
2) Tests for the inhibition of binding to the muscarinic M1 receptors
These tests were performed according to a modification of the method of Hargreaves et al. [Br. J. Pharmacol., Vol. 107, pp. 494-501 (1992)]. Specifically, a mixture of a membrane specimen from the cerebral cortex, 1 nM [^3 H]-telenzepine (85 Ci/mmol; manufactured by New England Nuclear) and a test compound in 0.5 ml of tris buffer was incubated at room temperature (about 20°-25° C.) for 120 minutes. After the addition of 0.5 ml of ice-cold tris buffer, the mixture was filtered by suction through a glass filter (Packard Unifilter Plate GF/C). Then, the filter was washed four times with 1 ml portions of ice-cold tris buffer and dried at 50° C. for an hour. After the addition of a scintillator (Packard Microscinti 0), the radioactivity of [^3 H]-telenzepine adsorbed to the filter was measured with a microplate scintillation counter (Packard Topcount). The nonspecific binding of [^3 H]-telenzepine to receptors was determined by the addition of […] pirenzepine. According to the method of Cheng and Prusoff [Biochem. Pharmacol., Vol. 22, pp. 3099-3108 (1973)], the affinity of the test compound (i.e., a compound in accordance with the present invention) for the muscarinic M1 receptors was determined in terms of its dissociation constant (Ki) calculated from the concentration (IC50) of the test compound which was required to cause a 50% inhibition of the binding of [^3 H]-telenzepine used as the labeled ligand.

muscarinic M3 receptor, sequence (P08483 whole entry): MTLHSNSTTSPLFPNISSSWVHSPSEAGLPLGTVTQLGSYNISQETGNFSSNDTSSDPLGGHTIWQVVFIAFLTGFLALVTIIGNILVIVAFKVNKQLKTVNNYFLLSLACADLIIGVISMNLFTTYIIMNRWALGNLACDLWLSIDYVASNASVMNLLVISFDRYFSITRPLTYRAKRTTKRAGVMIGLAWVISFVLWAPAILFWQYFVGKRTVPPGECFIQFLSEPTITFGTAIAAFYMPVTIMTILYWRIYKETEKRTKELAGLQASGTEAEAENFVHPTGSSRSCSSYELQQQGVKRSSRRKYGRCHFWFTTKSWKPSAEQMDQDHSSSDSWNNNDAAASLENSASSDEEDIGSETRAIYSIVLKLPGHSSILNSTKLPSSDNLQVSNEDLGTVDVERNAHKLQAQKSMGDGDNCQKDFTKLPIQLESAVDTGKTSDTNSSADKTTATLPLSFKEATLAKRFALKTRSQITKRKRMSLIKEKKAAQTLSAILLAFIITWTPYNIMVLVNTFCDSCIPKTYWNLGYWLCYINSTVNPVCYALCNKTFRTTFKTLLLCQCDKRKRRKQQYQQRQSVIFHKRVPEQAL

Compound	Ki (muscarinic M2 receptors) [nM]	Ki (muscarinic M3 receptor) [nM]	M1/M3 (muscarinic M3 receptor)	M2/M3 (muscarinic M3 receptor)	Ki (muscarinic M1 receptors) [nM]
CC[C@H](C)CCCN1CCC(NC(=O)[C@](O)(c2ccccc2)C2CCC2)CC1.Cl [Example 22, (2R)-N-{1-[(4S)-4-Methylhexyl]piperidin-4-yl}-2-cyclobutyl-2-hydroxy-2-phenylacetamide hydrochloride]	1400	9.2	13.0	152	120
O=C(NC1CCN(CC2CCCCC2)CC1)C(O)(c1ccccc1)C1CCCC1 (stereo not shown) [Example 32, N-[1-(Cyclohexylmethyl)piperidin-4-yl]-2-cyclopentyl-2-hydroxy-2-phenylacetamide]	2300	11	–	–	–
CC(C)=CCCN1CCC(NC(=O)C(O)(c2ccccc2)C2CCCC2)CC1 (stereo not shown) [Example 16, N-[1-(4-Methyl-3-pentenyl)piperidin-4-yl]-2-cyclopentyl-2-hydroxy-2-phenylacetamide]	302	3.1	4.2	97	13
CC(C)=CCCN1CCC(NC(=O)[C@](O)(c2ccccc2)C2CCCC2)CC1.O=C(O)/C=C/C(=O)O [Example 28, (2R)-N-[1-(4-Methyl-3-pentenyl)piperidin-4-yl]-2-cyclopentyl-2-hydroxy-2-phenylacetamide fumarate]	190	2	3.0	96	6
CC[C@H](C)CCCN1CCC(NC(=O)[C@](O)(c2ccccc2)C2CCCC2)CC1.Cl [Example 29, (2R)-N-{1-[(4S)-4-Methylhexyl]piperidin-4-yl}-2-cyclopentyl-2-hydroxy-2-phenylacetamide hydrochloride]	1100	4.1	10	270	40

Reference: patent US5750540A, “1,4-di-substituted piperidine derivatives” (Banyu Pharmaceutical Co., Ltd., priority 1995, dated 1998)
